US20250353891A1 (MEDIMMUNE LIMITED, priority 2022, published 2025)
Starred links: 1 amine or outer side, 2 acyl side, 3 side chain; linkers in the order of their positions; H or OH if unused. Non-standard residues stand in square brackets, D forms with d. Residues, ends and D or L forms follow the SMILES beside them. Groups on a side chain read outwards from the residue. *: point of attachment. C20 diacid = O=C(O)CCCCCCCCCCCCCCCCCCC(=O)*; C18 diacid = O=C(O)CCCCCCCCCCCCCCCCC(=O)*; γGlu = O=C(O)[C@H](CCC(=O)[*:2])N[*:1]; αMeF = C[C@](N)(Cc1ccccc1)C(=O)O; AEEA = NCCOCCOCC(=O)O; Aib = CC(C)(N)C(=O)O

Key:
[1] = molecular target: human GLP-1 receptor (hGLP-1R) (Homo sapiens, UniProt P43220); test: cAMP production (HTRF) in CHO cells expressing hGLP-1R; format: cell-based; set-up: expressed in transfected cells; details: for EC50: Table 7, peptides modified at position 20, cAMP in CHO hGLP-1R cells, geometric mean, read-out: hGLP-1R EC50; for % Relative Potency Ratio: Table 7, % GLP-1R activity relative to GLP-1 / % GlucR activity relative to glucagon
How it was run: (§1)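 Cells were resuspended in assay buffer at batch-optimized density, typically 1×10^5 cells/mL for hGLP-1R and 2×10^5 cells/mL for hGCGR. After 30 min incubation at room temperature with compound, cAMP was measured by two-step HTRF. EC50 values came from 4-parameter logistic fits of % Delta F.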

[2] = molecular target: human glucagon receptor (hGCGR) (Homo sapiens, UniProt P47871); test: cAMP production (HTRF) in CHO cells expressing hGCGR; format: cell-based; set-up: expressed in transfected cells; details: Table 7, peptides modified at position 20; cAMP in CHO hGCGR cells; geometric mean; read-out: hGluc-R EC50
How it was run: as §1

human glucagon receptor (hGCGR), sequence (P47871 26-477): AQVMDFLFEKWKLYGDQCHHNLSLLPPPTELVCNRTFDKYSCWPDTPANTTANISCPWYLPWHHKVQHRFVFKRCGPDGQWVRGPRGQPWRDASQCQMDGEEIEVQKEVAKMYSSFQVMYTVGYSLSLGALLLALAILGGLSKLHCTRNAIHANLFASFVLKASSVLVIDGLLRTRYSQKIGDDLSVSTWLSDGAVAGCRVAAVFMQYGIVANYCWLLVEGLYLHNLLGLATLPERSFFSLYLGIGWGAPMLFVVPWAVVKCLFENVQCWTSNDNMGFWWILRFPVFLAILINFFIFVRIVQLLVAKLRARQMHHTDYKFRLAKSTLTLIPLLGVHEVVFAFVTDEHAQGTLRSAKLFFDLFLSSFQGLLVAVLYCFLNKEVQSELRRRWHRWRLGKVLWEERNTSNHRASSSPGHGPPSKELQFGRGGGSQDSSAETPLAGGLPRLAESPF
human GLP-1 receptor (hGLP-1R), sequence (P43220 24-463): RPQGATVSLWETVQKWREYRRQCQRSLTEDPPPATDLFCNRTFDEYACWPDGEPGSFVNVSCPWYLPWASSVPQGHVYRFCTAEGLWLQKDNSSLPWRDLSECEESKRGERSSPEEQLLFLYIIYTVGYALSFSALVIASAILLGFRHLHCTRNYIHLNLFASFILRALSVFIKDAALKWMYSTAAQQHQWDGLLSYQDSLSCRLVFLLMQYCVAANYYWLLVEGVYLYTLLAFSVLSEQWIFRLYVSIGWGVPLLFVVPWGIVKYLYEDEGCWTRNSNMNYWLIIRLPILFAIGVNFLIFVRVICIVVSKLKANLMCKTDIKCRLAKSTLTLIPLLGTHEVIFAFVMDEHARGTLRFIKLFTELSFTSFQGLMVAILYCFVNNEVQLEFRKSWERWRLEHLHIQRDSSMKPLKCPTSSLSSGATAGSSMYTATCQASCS

Row | Compound | EC50 [1] [nM] | % Relative Potency Ratio [1] | EC50 [2] [nM]
1 | CC[C@H](C)[C@H](NC(=O)C(C)(C)NC(=O)[C@H](CCC(=O)O)NC(=O)[C@@H](NC(=O)[C@](C)(Cc1ccccc1)NC(=O)[C@H](CC(=O)O)NC(=O)[C@H](CCCCNC(=O)COCCOCCNC(=O)COCCOCCNC(=O)CC[C@H](NC(=O)CC[C@H](NC(=O)CCCCCCCCCCCCCCCCCCC(=O)O)C(=O)O)C(=O)O)NC(=O)[C@H](C)NC(=O)[C@H](C)NC(=O)[C@H](CCCNC(=N)N)NC(=O)[C@H](CO)NC(=O)[C@H](CC(=O)O)NC(=O)[C@H](CC(C)C)NC(=O)[C@](C)(Cc1ccccc1)NC(=O)[C@H](CCCCN)NC(=O)[C@H](CO)NC(=O)[C@@H](NC(=O)[C@H](CC(=O)O)NC(=O)[C@H](CO)NC(=O)[C@@H](NC(=O)[C@](C)(Cc1ccccc1)NC(=O)[C@H](CO)NC(=O)CNC(=O)[C@H](Cc1c[nH]cn1)NC(=O)C(C)(C)NC(=O)[C@@H](N)Cc1c[nH]cn1)[C@@H](C)O)C(C)C)C(C)C)C(=O)N[C@@H](C)C(=O)N[C@@H](CC(N)=O)C(=O)N[C@H](C(N)=O)[C@@H](C)O [Peptide 233] (H-H[Aib]HGS[αMeF]TSDVSK[αMeF]LDSRAAK([AEEA-AEEA-γGlu-γGlu-C20 diacid])D[αMeF]VE[Aib]IANT-NH2; N-terminus assumed) | 0.44 | 1.8 | 0.407
2 | CC[C@H](C)[C@H](NC(=O)C(C)(C)NC(=O)[C@H](CCC(N)=O)NC(=O)[C@@H](NC(=O)[C@H](Cc1ccccc1)NC(=O)[C@H](CC(=O)O)NC(=O)[C@H](CCCCNC(=O)COCCOCCNC(=O)COCCOCCNC(=O)CC[C@H](NC(=O)CC[C@H](NC(=O)CCCCCCCCCCCCCCCCCCC(=O)O)C(=O)O)C(=O)O)NC(=O)[C@H](C)NC(=O)[C@H](C)NC(=O)[C@H](CCCNC(=N)N)NC(=O)[C@H](CO)NC(=O)[C@H](CC(=O)O)NC(=O)[C@H](CC(C)C)NC(=O)[C@](C)(Cc1ccccc1)NC(=O)[C@H](CCCCN)NC(=O)[C@H](CO)NC(=O)[C@@H](NC(=O)[C@H](CC(=O)O)NC(=O)[C@H](CO)NC(=O)[C@@H](NC(=O)[C@](C)(Cc1ccccc1)NC(=O)[C@H](CO)NC(=O)CNC(=O)[C@H](Cc1c[nH]cn1)NC(=O)C(C)(C)NC(=O)[C@@H](N)Cc1c[nH]cn1)[C@@H](C)O)C(C)C)C(C)C)C(=O)N[C@@H](C)C(=O)N[C@@H](CC(N)=O)C(=O)N[C@H](C(=O)NCC(N)=O)[C@@H](C)O [Peptide 234] (H-H[Aib]HGS[αMeF]TSDVSK[αMeF]LDSRAAK([AEEA-AEEA-γGlu-γGlu-C20 diacid])DFVQ[Aib]IANTG-NH2) | 0.068 | 37.4 | 1.29
3 | CC[C@H](C)[C@H](NC(=O)C(C)(C)NC(=O)[C@H](CCC(N)=O)NC(=O)[C@@H](NC(=O)[C@H](Cc1ccccc1)NC(=O)[C@H](CC(=O)O)NC(=O)[C@H](CCCCNC(=O)COCCOCCNC(=O)COCCOCCNC(=O)CC[C@H](NC(=O)CC[C@H](NC(=O)CCCCCCCCCCCCCCCCC(=O)O)C(=O)O)C(=O)O)NC(=O)[C@H](C)NC(=O)[C@H](C)NC(=O)[C@H](CCCNC(=N)N)NC(=O)[C@H](CO)NC(=O)[C@H](CC(=O)O)NC(=O)[C@H](CC(C)C)NC(=O)[C@](C)(Cc1ccccc1)NC(=O)[C@H](CCCCN)NC(=O)[C@H](CO)NC(=O)[C@@H](NC(=O)[C@H](CC(=O)O)NC(=O)[C@H](CO)NC(=O)[C@@H](NC(=O)[C@](C)(Cc1ccccc1)NC(=O)[C@H](CO)NC(=O)CNC(=O)[C@H](Cc1c[nH]cn1)NC(=O)C(C)(C)NC(=O)[C@@H](N)Cc1c[nH]cn1)[C@@H](C)O)C(C)C)C(C)C)C(=O)N[C@@H](C)C(=O)N[C@@H](CC(N)=O)C(=O)N[C@H](C(=O)NCC(N)=O)[C@@H](C)O [Peptide 236] (H-H[Aib]HGS[αMeF]TSDVSK[αMeF]LDSRAAK([AEEA-AEEA-γGlu-γGlu-C18 diacid])DFVQ[Aib]IANTG-NH2) | 0.0221 | 19.2 | 0.215
